Experiments:
[1] = Chronic PAR treatment after chronic social defeat stress: behavioral tests (open field, social avoidance, forced swim); format: in vivo; conditions: FKBP51-deleted versus wild type mice
From the text: After cessation of the stressor, groups were subdivided into vehicle-treated and paroxetine-treated animals, resulting in 8 groups (n = 7-13 per group). The treatment phase lasted for three weeks. The behavioral tests took place during the last week of the paroxetine treatment. The CSDS paradigm lasted for 21 days. Briefly, the experimental mice were introduced into the home cage (45 cm x 25 cm) of a dominant resident mouse and defeated shortly after. When the defeat was achieved, the animals were separated by a wire mesh, preventing physical but allowing sensory contact for 24 h. Each day, stressed animals were defeated by another unfamiliar, dominant resident mouse in order to exclude a repeated encounter throughout the experiment. The daily defeat was performed between 11:00 and 16:00 h; varying starting times reduced the predictability of the stressor and therefore minimized a potential habituation effect. […] Both stress and control animals were handled daily during the stress procedure; body weight for all mice was assessed at the beginning of the experiment, after the cessation of the stress period, and on the day of killing. […] All tests were analyzed using an automated videotracking system (Anymaze 4.20, Stoelting, Wood Dale, IL). […] Time spent immobile (floating) and time spent struggling was scored by an experienced observer, blind to treatment or condition of the animals.

[2] = Chronic PAR treatment after chronic social defeat stress: physiological and neuroendocrine parameters; format: in vivo, mice
From the text: Initially, wild-type and 51 KOmice were split into 2 x 2 groups (control WT, control FKBP51^-/-, defeat WT, defeat FKBP51^-/-) and subjected to the chronic stress procedure described below. After cessation of the stressor, groups were subdivided into vehicle-treated and paroxetine-treated animals, resulting in 8 groups (n = 7-13 per group). The treatment phase lasted for three weeks. The behavioral tests took place during the last week of the paroxetine treatment.
The CSDS paradigm lasted for 21 days. Briefly, the experimental mice were introduced into the home cage (45 cm x 25 cm) of a dominant resident mouse and defeated shortly after. When the defeat was achieved, the animals were separated by a wire mesh, preventing physical but allowing sensory contact for 24 h. Each day, stressed animals were defeated by another unfamiliar, dominant resident mouse in order to exclude a repeated encounter throughout the experiment. The daily defeat was performed between 11:00 and 16:00 h; varying starting times reduced the predictability of the stressor and therefore minimized a potential habituation effect. […] Both stress and control animals were handled daily during the stress procedure; body weight for all mice was assessed at the beginning of the experiment, after the cessation of the stress period, and on the day of killing. […]

Beclin1 mRNA = Beclin1 mRNA expression by qPCR in rat cortical astrocytes; format: cell-based; conditions: 10µM for 72h; vehicle set to 1
Description: Enriched astroglial cultures were prepared from postnatal day 1 rat pups (Sprague-Dawley, Charles River, Sulzfeld, Germany) and handled as described by Attwood BK et al. (2011) Nature 473: 372-375 and Hartmann J et al. (2012) Neuropharmacology 62: 332-339.
Total RNA was isolated from astroglial cells according to the manufacturer's protocol of NucleoSpin RNA II (Macherey-Nagel, Germany). In total, 300 ng of purified RNA was reverse transcribed using random primers (Promega) and Omniscript® Reverse Transcriptase (Qiagen). Based on the LightCycler® System (Roche Applied Science, Germany) and SYBR green detection (QuantiFast® SYBR Green; Qiagen), quantitative assessment of Beclin1 cDNA levels were performed. b-Actin PCR was performed serving as endogenous control for normalization. The primers used were: for Beclin1: antisense - 5'-[…]-3' sense - 5'-[…]-3'; and for β-Actin: antisense - 5'-[…]-3', sense-5'-[…]-3'. Relative changes of gene expression were calculated using the comparative ΔΔCT method (Livak and Schmittgen, METHODS 25, 402-408, 2001). Detection of viral RNA by real-time PCR was as recently described (Corman et al. (2014) Journal of Clinical Virology 60: 168-171).
Beclin1 mRNA expression levels were determined by qPCR. HEK cells were treated either with proteasome inhibitor MG132 or with vehicle for 5h and Beclin1 protein levels were determined by Western analysis. Furthermore Co-immunoprecipitations were performed with Beclin1 antibody in HEK cell lysates with ectopic Ub-GFP.

In the case of `Fc1ccc([C@@H]2CCNC[C@H]2COc2ccc3c(c2)OCO3)cc1` [PAR, paroxetine], the “enhancing struggling and reducing floating, forced swim test” value [1] is reported as “significantly less effective”, the “paroxetine-induced body weight increase” value ([2]; 51 KO versus wild-type mice) is reported as “significantly less affected” and the “paroxetine-induced body weight increase” value ([2]; basal conditions versus stressed animals) is reported as “significantly enhanced in mice under basal conditions compared to stressed animals”. For the same compound, the “Beclin1 mRNA expression level” value (Beclin1 mRNA) was “do not change Beclin1-mRNA”.

Source: patent publication EP2954896A1, “Small molecule inhibitors of the E3 Ligase Skp2 in depression and other diseases” (Max-Planck-Gesellschaft zur Förderung der Wissenschaften …, priority 2014, dated 2015)
